Experimental data from article PMC10786919, “Design-rules for stapled peptides with in vivo activity and their application to Mdm2/X antagonists” (Nature Communications, 2024).
≈ marks a conversion by molar mass, not a printed value. Like-named read-outs stand apart in the source and are kept apart here. Positions of bridges follow the written chain, without caps; N, C: chain ends. Non-standard residues stand in square brackets, D forms with d. Residues, ends and D or L forms follow the SMILES beside them. Lys(N3) = [N-]=[N+]=NCCCC[C@H](N)C(=O)O; hArg = N=C(N)NCCCC[C@H](N)C(=O)O; R8 = C=CCCCCCC[C@@](C)(N)C(=O)O; Cba = N[C@@H](CC1CCC1)C(=O)O; S5 = C=CCCC[C@](C)(N)C(=O)O; βAla = NCCC(=O)O; Sar = CNCC(=O)O

Experiments:
[1] = Lactate dehydrogenase (LDH) release assay; type: cell-based
Outline: (§1)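 A p53 β-lactamase reporter HCT116 line, 8000 cells per well, is exposed to test compounds at 0.5% final DMSO and scored for LDH leakage.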

[2] = test system: HCT116 cells; assay: Lactate dehydrogenase (LDH) release assay; type: cell-based
Outline: as §1

[3] = Solubility assay (kinetic solubility, PBS pH 7); type: physicochemical; conditions: pH 7, aqueous buffer, kinetic from dmso stock, pH 7, PBS; read-out: Solubility
Outline: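 Values derive from peak-area ratios of sample versus a 100 µM standard, scaled by that standard's concentration.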

[4] = in vitro
Outline: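 Azido-peptide permeability was read as loss of NanoBRET signal (donor 450 nm, acceptor 610 nm) after adding NanoBret618-azide at 10 μM final.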

[5] = Experimental LogD (partition coefficient); conditions: not stated, Partition Coeff LogD
[6] = physchem
[7] = Nanoclick permeability assay EC50
[8] = 0% FBS 4Hr, read-out: LDH: Cytotoxicity assay: EC50
[9] = 4 hours, 0% serum, read-out: LDH Cytotoxicity assay EC50

| SMILES | EC50 ([1]; LDH: Cytotoxicity assay: EC50) [µM] | LDH: Cytotoxicity assay: % Effect [2] [%] | solubility kinetic [3] [µM] | cell entry EC50 [4, 7] [µM] | logD [5] | EPSA [6] [A^2] | EC50 [1, 8] [µM] | EC50 [1, 9] [µM] | cell entry EC50 [4] [µM] |
| --- | --- | --- | --- | --- | --- | --- | --- | --- | --- |
| CC(=O)N[C@@H](CCCCN=[N+]=[N-])C(=O)NCCC(=O)N[C@@H](CC(C)C)C(=O)N[C@H](C(=O)N[C@@H](Cc1ccccc1)C(=O)N[C@]1(C)CCCCCCC=CCCC[C@@](C)(C(=O)N[C@@H](CO)C(=O)N[C@@H](C)C(=O)N[C@@H](C)C(N)=O)NC(=O)[C@H](CC2CCC2)NC(=O)[C@H](CCC(N)=O)NC(=O)[C@H](C)NC(=O)[C@H](Cc2c[nH]c3cc(F)ccc23)NC(=O)[C@H](Cc2ccc(O)cc2)NC(=O)[C@H](CCC(=O)O)NC1=O)[C@@H](C)O [MP-004] | 23.9 | 10.1 | 110 (≈ 219 µg/mL) | 7.44 | 2.9 | 201 |  |  |  |
| CC(C)C[C@H](NC(=O)CCNC(=O)[C@@H](N)CCCCN=[N+]=[N-])C(=O)N[C@H](C(=O)N[C@@H](Cc1ccccc1)C(=O)N[C@]1(C)CCCCCCC=CCCC[C@@](C)(C(N)=O)NC(=O)[C@H](CC2CCC2)NC(=O)[C@H](CCC(N)=O)NC(=O)[C@H](C)NC(=O)[C@H](Cc2c[nH]c3ccccc23)NC(=O)[C@H](Cc2ccc(O)cc2)NC(=O)[C@H](CCC(=O)O)NC1=O)[C@@H](C)O [MP-327] (H-[Lys(N3)][βAla]LTF[R8]EYWAQ[Cba][S5]-NH2; staple 6-13) | > 50.6 | 39.84 |  | > 10 | 2.83 | 228 |  |  |  |
| CC(=O)N[C@@H](CCCCN=[N+]=[N-])C(=O)NCCC(=O)N[C@@H](CC(C)C)C(=O)N[C@H](C(=O)N[C@@H](Cc1ccccc1)C(=O)N[C@]1(C)CCCCCCC=CCCC[C@@](C)(C(=O)N[C@@H](CO)C(=O)N[C@H](C)C(=O)N[C@@H](C)C(N)=O)NC(=O)[C@H](CC2CCC2)NC(=O)[C@H](CCC(N)=O)NC(=O)[C@H](C)NC(=O)[C@H](Cc2c[nH]c3cc(Cl)ccc23)NC(=O)[C@H](Cc2ccc(O)cc2)NC(=O)[C@H](CCC(=O)O)NC1=O)[C@@H](C)O [MP-494] | > 50.6 |  | 86.5 (≈ 173 µg/mL) | 0.706 | 3.33 | 210 |  |  |  |
| CC(=O)N[C@@H](CCCCN=[N+]=[N-])C(=O)NCCC(=O)N[C@@H](CC(C)C)C(=O)N[C@H](C(=O)N[C@@H](Cc1ccccc1)C(=O)N[C@]1(C)CCCCCCC=CCCC[C@@](C)(C(=O)N[C@@H](CO)C(=O)N[C@@H](C)C(=O)N(C)CC(N)=O)NC(=O)[C@H](CC2CCC2)NC(=O)[C@H](CCC(N)=O)NC(=O)[C@H](C)NC(=O)[C@H](Cc2c[nH]c3ccccc23)NC(=O)[C@H](Cc2ccc(O)cc2)NC(=O)[C@H](CCC(=O)O)NC1=O)[C@@H](C)O [MP-566] (Ac-[Lys(N3)][βAla]LTF[R8]EYWAQ[Cba][S5]SA[Sar]-NH2; staple 6-13) | > 50.6 |  | 87.5 (≈ 172 µg/mL) | 0.132 | 2.69 | 204 |  |  |  |
| CC(=O)N[C@@H](CCCCN=[N+]=[N-])C(=O)NCCC(=O)N(C)CC(=O)N[C@H](C(=O)N[C@@H](Cc1ccccc1)C(=O)N[C@]1(C)CCCCCCC=CCCC[C@@](C)(C(=O)N[C@@H](CO)C(=O)N[C@@H](C)C(=O)N[C@@H](C)C(N)=O)NC(=O)[C@H](CC2CCC2)NC(=O)[C@H](CCC(N)=O)NC(=O)[C@H](C)NC(=O)[C@H](Cc2c[nH]c3ccccc23)NC(=O)[C@H](Cc2ccc(O)cc2)NC(=O)[C@H](CCC(=O)O)NC1=O)[C@@H](C)O [MP-799] (Ac-[Lys(N3)][βAla][Sar]TF[R8]EYWAQ[Cba][S5]SAA-NH2; staple 6-13) | > 50.6 |  | 82.5 (≈ 159 µg/mL) | > 10 | 2.6 | 219 |  |  |  |
| CC(=O)N[C@@H](CCCCN=[N+]=[N-])C(=O)NCCC(=O)N[C@@H](CC(C)C)C(=O)N[C@H](C(=O)N[C@@H](C)C(=O)N[C@]1(C)CCCCCCC=CCCC[C@@](C)(C(=O)N[C@@H](CO)C(=O)N[C@@H](C)C(=O)N[C@@H](C)C(N)=O)NC(=O)[C@H](CC2CCC2)NC(=O)[C@H](CCC(N)=O)NC(=O)[C@H](C)NC(=O)[C@H](Cc2c[nH]c3ccccc23)NC(=O)[C@H](Cc2ccc(O)cc2)NC(=O)[C@H](CCC(=O)O)NC1=O)[C@@H](C)O [MP-892, AZIDE-ATSP-7041 (F3A)] |  |  | 101 (≈ 191 µg/mL) |  | 2.54 | 201 | > 50.6 | > 50 | 0.465 |
| CC(=O)N[C@@H](CCCCN=[N+]=[N-])C(=O)NCCC(=O)N[C@@H](CC(C)C)C(=O)N[C@H](C(=O)N[C@@H](Cc1ccccc1)C(=O)N[C@]1(C)CCCCCCC=CCCC[C@@](C)(C(=O)N[C@@H](CO)C(=O)N[C@@H](C)C(=O)N[C@@H](C)C(N)=O)NC(=O)[C@H](CC2CCC2)NC(=O)[C@H](CCC(N)=O)NC(=O)[C@H](C)NC(=O)[C@H](C)NC(=O)[C@H](Cc2ccc(O)cc2)NC(=O)[C@H](CCC(=O)O)NC1=O)[C@@H](C)O [MP-893, AZIDE-ATSP-7041(W7A)] |  |  | 51 (≈ 94.6 µg/mL) |  | 2.88 | 192 | 15 | 15 | 1.23 |
| CC(=O)N(C)CC(=O)N[C@@H](CCCCN=[N+]=[N-])C(=O)NCCC(=O)N[C@@H](C)C(=O)N[C@H](C(=O)N[C@@H](Cc1ccccc1)C(=O)N[C@]1(C)CCCCCCC=CCCC[C@@](C)(C(=O)N[C@@H](C)C(=O)N[C@@H](C)C(=O)N[C@@H](C)C(N)=O)NC(=O)[C@H](CC2CCC2)NC(=O)[C@H](C)NC(=O)[C@H](C)NC(=O)[C@H](Cc2c[nH]c3ccccc23)NC(=O)[C@H](Cc2ccc(O)cc2)NC(=O)[C@H](C)NC1=O)[C@@H](C)O [MP-895] (Ac-[Sar][Lys(N3)][βAla]ATF[R8]AYWAA[Cba][S5]AAA-NH2; staple 7-14) | > 50.6 |  | 2 (≈ 3.74 µg/mL) | 0.197 | 3.46 | 184 |  |  |  |
| CC(=O)N[C@@H](CCCCN=[N+]=[N-])C(=O)NCCC(=O)N[C@@H](CC(C)C)C(=O)N[C@@H](CCCCNC(=N)N)C(=O)N[C@@H](Cc1ccccc1)C(=O)N[C@]1(C)CCCCCCC=CCCC[C@@](C)(C(=O)N[C@@H](CO)C(=O)N[C@@H](C)C(=O)N[C@@H](C)C(N)=O)NC(=O)[C@H](CC2CCC2)NC(=O)[C@H](CCC(N)=O)NC(=O)[C@H](C)NC(=O)[C@H](Cc2c[nH]c3ccccc23)NC(=O)[C@H](Cc2ccc(O)cc2)NC(=O)[C@H](CCC(=O)O)NC1=O [MP-6897] (Ac-[Lys(N3)][βAla]L[hArg]F[R8]EYWAQ[Cba][S5]SAA-NH2; staple 6-13) | > 50.6 |  | 9 (≈ 18.4 µg/mL) | 1.51 | 2.94 | 210 |  |  |  |
| CC(=O)N[C@@H](CCCCN=[N+]=[N-])C(=O)NCCC(=O)N[C@H](C)C(=O)N[C@H](C(=O)N[C@@H](Cc1ccccc1)C(=O)N[C@]1(C)CCCCCCC=CCCC[C@@](C)(C(=O)N[C@@H](CO)C(=O)N[C@@H](C)C(=O)N[C@@H](C)C(N)=O)NC(=O)[C@H](CC2CCC2)NC(=O)[C@H](CCC(N)=O)NC(=O)[C@H](C)NC(=O)[C@H](Cc2c[nH]c3ccccc23)NC(=O)[C@H](Cc2ccc(O)cc2)NC(=O)[C@H](CCC(=O)O)NC1=O)[C@@H](C)O [MP-7470] | > 50 |  | 90 (≈ 174 µg/mL) | > 10 | 2.72 | 228 |  |  |  |
